Experimental data reported in US6620826B2, “Endothelin receptor antagonists” (SmithKline Beecham Corporation, priority 1994, dated 2003).

Row | melting point [°C] | Structure (SMILES)
1 | 185 to 190 | CCCCc1ncc(/C=C(\Cc2cc3c(cc2OC)OCO3)C(=O)O)n1-c1ccc(OC)cc1OCc1nnnn1CC [Example 23, (E)-3-[2-Butyl-1-[2-(1-ethyl-1H-tetrazol-5-yl)methoxy-4-methoxyphenyl]-1H-imidazol-5-yl]-2-[(2-methoxy-4,5-methylenedioxyphenyl)methyl]-2-propenoic Acid]
2 | 110 to 118 | CCCCc1ncc(/C=C(\Cc2cc3c(cc2OC)OCO3)C(=O)O)n1-c1ccc(OC)cc1OCc1nnn(CCC)n1 [Example 24, (E)-3-[2-Butyl-1-[2-(2-propyl-2H-tetrazol-5-yl)methoxy-4-methoxyphenyl]-1H-imidazol-5-yl]-2-[(2-methoxy-4,5-methylenedioxyphenyl)methyl]-2-propenoic Acid]
